Read-outs that look alike come from different tables or passages of the source.
Experiments:
Type in all cases: in vivo
Cercospora beticola = test: Leaf Spot of Sugar Beets (CERCBE) fungicidal activity; settings: 24 h, 1DP (1 Day Protectant), sugar beet, read-out: CERCBE Disease Control
Protocol: Technical grades of materials were dissolved in acetone, which were then mixed with nine volumes of H2O containing 110 ppm Triton X-100. The fungicide solutions were applied onto wheat seedlings using an automated booth sprayer to run-off. All sprayed plants were allowed to air dry prior to further handling. All fungicides were evaluated using the aforementioned method for their activity vs. all target diseases, unless stated otherwise. Wheat leaf blotch and brown rust activity were also evaluated using track spray applications, in which case the fungicides were formulated as EC formulations, containing 0.1% Trycol 5941 in the spray solutions. Wheat plants (variety Yuma) were grown from seed in a greenhouse in 50% mineral soil/50% soil-less Metro mix until the first leaf was fully emerged, with 7-10 seedlings per pot. These plants were inoculated with an aqueous spore suspension of Zymoseptoria tritici either prior to or after fungicide treatments. After inoculation the plants were kept in 100% relative humidity (one day in a dark dew chamber followed by two to three days in a lighted dew chamber at 20° C.) to permit spores to germinate and infect the leaf. The plants were then transferred to a greenhouse set at 20° C. for disease to develop. When disease symptoms were fully expressed on the 1st leaves of untreated plants, infection levels were assessed on a scale of 0 to 100 percent disease severity. Percent disease control was calculated using the ratio of disease severity on treated plants relative to untreated plants. Example G: Evaluation of Fungicidal Activity: Leaf Spot of Sugar Beets (Cercospora beticola; Bayer Code CERCBE) Sugar beet plants (variety HH88) were grown in soil-less Metro mix and trimmed regularly to maintain a uniform plant size prior to test. Plants were inoculated with a spore suspension 24 hr after fungicide treatments. Inoculated plants were kept in a dew chamber at 22° C. for 48 hr then incubated in a greenhouse set at 24° C. under a clear plastic hood with bottom ventilation until disease symptoms were fully expressed. Fungicide formulation, application and disease assessment on the sprayed leaves followed the procedures as described in the Example A.

Zymoseptoria tritici = test: Leaf Blotch of Wheat (SEPTTR) fungicidal activity; settings: wheat leaf blotch; for pest or weed control at 100 ppm: High Volume application; for pest or weed control at 121.5 g/ha: Low Volume application, 121.5 g/H
Procedure, shortened: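 Wheat seedlings (Yuma, first leaf emerged) were sprayed to run-off with compound in acetone/water containing Triton X-100 and inoculated with Z. tritici spores before or after treatment. Percent disease control comes from 0–100% severity on treated versus untreated plants.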

Puccinia triticina = test: Wheat Brown Rust (PUCCRT) fungicidal activity; settings: for pest or weed control at 100 ppm: High Volume application; for pest or weed control at 121.5 g/ha: Low Volume application, 121.5 g/H
Procedure, shortened: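 Disease severity (0–100%) on first leaves compared with untreated plants gives percent control. Plants (wheat var. Yuma) received spore inoculum before or after run-off spraying with compound in acetone/Triton X-100 water, held overnight at 22° C, 100% RH, then in a 24° C greenhouse.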

[1] = 24 h, 1 day protectant, read-out: SEPTTR disease control, 1DP (1 Day Protectant)
[2] = 72 h, 3 day curative, read-out: SEPTTR disease control, 3DC (3 Day Curative)
[3] = 24 h, 1 day protectant, read-out: PUCCRT disease control, 1DP (1 Day Protectant)
[4] = 72 h, 3 day curative, read-out: PUCCRT disease control, 3DC (3 Day Curative)

CCCCO[C@H]1CCOC[C@H](NC(=O)c2nccc(OC)c2OCOC(C)=O)C(=O)O[C@@H](C)[C@@H]1OCc1ccccc1 [Compound 2]
< 80%: pest or weed control at 121.5 g/ha (Zymoseptoria tritici; [1]) | pest or weed control at 100 ppm (Zymoseptoria tritici; [2])
> 80%: pest or weed control at 100 ppm (Cercospora beticola) | pest or weed control at 100 ppm (Zymoseptoria tritici; [1]) | pest or weed control at 100 ppm (Puccinia triticina; [3]) | pest or weed control at 121.5 g/ha (Puccinia triticina; [3]) | pest or weed control at 100 ppm (Puccinia triticina; [4]) | pest or weed control at 121.5 g/ha (Puccinia triticina; [4])

CCCCO[C@H]1CCOC[C@H](NC(=O)c2nccc(OC)c2OCOC(C)=O)C(=O)O[C@@H](C)[C@@H]1OC(=O)C(C)C [Compound 3]
< 80%: pest or weed control at 100 ppm (Cercospora beticola) | pest or weed control at 100 ppm (Zymoseptoria tritici; [2])
> 80%: pest or weed control at 100 ppm (Zymoseptoria tritici; [1]) | pest or weed control at 100 ppm (Puccinia triticina; [3]) | pest or weed control at 100 ppm (Puccinia triticina; [4])

CCCCO[C@H]1CCOC[C@H](NC(=O)c2nccc(OC)c2OCOC(C)=O)C(=O)O[C@@H](C)[C@@H]1OC(=O)c1ccccc1 [Compound 4]
< 80%: pest or weed control at 100 ppm (Cercospora beticola) | pest or weed control at 121.5 g/ha (Zymoseptoria tritici; [1]) | pest or weed control at 100 ppm (Zymoseptoria tritici; [2])
> 80%: pest or weed control at 100 ppm (Zymoseptoria tritici; [1]) | pest or weed control at 100 ppm (Puccinia triticina; [3]) | pest or weed control at 121.5 g/ha (Puccinia triticina; [3]) | pest or weed control at 100 ppm (Puccinia triticina; [4]) | pest or weed control at 121.5 g/ha (Puccinia triticina; [4])

CCCCO[C@H]1CCOC[C@H](NC(=O)c2nccc(OC)c2OCOC(C)=O)C(=O)O[C@@H](C)[C@@H]1OC(=O)C1CC1 [Compound 5]
> 80%: pest or weed control at 100 ppm (Zymoseptoria tritici; [1]) | pest or weed control at 100 ppm (Puccinia triticina; [3]) | pest or weed control at 100 ppm (Puccinia triticina; [4])
< 80%: pest or weed control at 100 ppm (Cercospora beticola) | pest or weed control at 100 ppm (Zymoseptoria tritici; [2])

COc1ccnc(C(=O)N[C@H]2COCC[C@@H](OCC(C)C)[C@@H](OCC(C)C)[C@H](C)OC2=O)c1OCOC(C)=O [Compound 6]
> 80%: pest or weed control at 100 ppm (Cercospora beticola) | pest or weed control at 100 ppm (Zymoseptoria tritici; [1]) | pest or weed control at 100 ppm (Puccinia triticina; [3]) | pest or weed control at 100 ppm (Puccinia triticina; [4])

CCCCCO[C@H]1[C@H](C)OC(=O)[C@@H](NC(=O)c2nccc(OC)c2OCOC(C)=O)CCCC[C@@H]1Oc1ccccc1 [Compound 17]
> 80%: pest or weed control at 100 ppm (Cercospora beticola) | pest or weed control at 100 ppm (Zymoseptoria tritici; [1]) | pest or weed control at 100 ppm (Zymoseptoria tritici; [2]) | pest or weed control at 100 ppm (Puccinia triticina; [3]) | pest or weed control at 100 ppm (Puccinia triticina; [4])

CCCO[C@H]1[C@H](C)OC(=O)[C@@H](NC(=O)c2nccc(OC)c2OCOC(C)=O)CCCC[C@@H]1Oc1ccccc1 [Compound 18]
> 80%: pest or weed control at 100 ppm (Cercospora beticola) | pest or weed control at 100 ppm (Zymoseptoria tritici; [1]) | pest or weed control at 100 ppm (Zymoseptoria tritici; [2]) | pest or weed control at 100 ppm (Puccinia triticina; [3]) | pest or weed control at 100 ppm (Puccinia triticina; [4])

COc1ccnc(C(=O)N[C@H]2CCCC[C@H](Oc3ccccc3)[C@@H](Oc3ccccc3)[C@H](C)OC2=O)c1OCOC(C)=O [Compound 19]
> 80%: pest or weed control at 100 ppm (Cercospora beticola) | pest or weed control at 100 ppm (Zymoseptoria tritici; [1]) | pest or weed control at 121.5 g/ha (Zymoseptoria tritici; [1]) | pest or weed control at 100 ppm (Zymoseptoria tritici; [2]) | pest or weed control at 121.5 g/ha (Zymoseptoria tritici; [2]) | pest or weed control at 100 ppm (Puccinia triticina; [3]) | pest or weed control at 121.5 g/ha (Puccinia triticina; [3]) | pest or weed control at 100 ppm (Puccinia triticina; [4]) | pest or weed control at 121.5 g/ha (Puccinia triticina; [4])

COc1ccnc(C(=O)N[C@H]2COCC[C@H](Cc3ccccc3)[C@@H](OCC(C)C)[C@H](C)OC2=O)c1OCOC(C)=O [Compound 20]
< 80%: pest or weed control at 121.5 g/ha (Zymoseptoria tritici; [1])
> 80%: pest or weed control at 100 ppm (Cercospora beticola) | pest or weed control at 121.5 g/ha (Zymoseptoria tritici; [2]) | pest or weed control at 121.5 g/ha (Puccinia triticina; [3]) | pest or weed control at 121.5 g/ha (Puccinia triticina; [4])

COc1ccnc(C(=O)N[C@H]2COCC[C@H](Cc3ccccc3)[C@@H](OCC(C)C)[C@H](C)OC2=O)c1OC(C)=O [Compound 21]
> 80%: pest or weed control at 121.5 g/ha (Zymoseptoria tritici; [2]) | pest or weed control at 121.5 g/ha (Puccinia triticina; [3]) | pest or weed control at 121.5 g/ha (Puccinia triticina; [4])
< 80%: pest or weed control at 100 ppm (Cercospora beticola) | pest or weed control at 121.5 g/ha (Zymoseptoria tritici; [1])

COc1ccnc(C(=O)N[C@H]2CCOC[C@H](Oc3ccccc3)[C@@H](Oc3ccccc3)[C@H](C)OC2=O)c1OCOC(C)=O [Compound 37]
> 80%: pest or weed control at 100 ppm (Cercospora beticola) | pest or weed control at 121.5 g/ha (Zymoseptoria tritici; [1]) | pest or weed control at 121.5 g/ha (Zymoseptoria tritici; [2]) | pest or weed control at 121.5 g/ha (Puccinia triticina; [3]) | pest or weed control at 121.5 g/ha (Puccinia triticina; [4])
